Laboratory results from US20250074910A1, “MENIN INHIBITOR AND USE THEREOF” (HITGEN INC., priority 2021, published 2025).

Experiments:
[1] = molecular target: Menin/MLL-4-43 peptide interaction (Homo sapiens (Human), UniProt O00255); test: Menin-MLL interaction inhibitory activity assay (fluorescence polarization competition); format: binding; conditions: FITC-MLL4-43-peptide, Menin recombinant protein
Experimental: Test Example 1: Menin-MLL Interaction Inhibitory Activity Assay
The inhibition of Menin/MLL-4-43 peptide interaction by small molecule inhibitors was quantitatively detected by fluorescence polarization competition assay. The experiment was performed in a 384-well plate (Corning, Cat #3575) using a reaction buffer consisting of 50 mM Tris, pH 7.5, 50 mM NaCl, and 1 mM DTT. A 40 μL reaction system included 10 μL of 8 nM Menin recombinant protein and 10 μL of the test compound at different concentrations. The compound was pre-incubated with Menin protein for 15 min, and then 20 μL of 10 nM FITC-MLL4-43-peptide was added. After incubation on a shaker at 25° C. for 60 min, the fluorescence polarization signal (FP 485 520 520) was read using BMG PHERAStar detection. The experimental data was analyzed and processed by GraphPad Prism 6 software to obtain the IC50 value. The control compound 1 was prepared by referring to the method of Example 64 in WO2017214367.

MV4-11 = test: Cell proliferation inhibition (CellTiter-Glo), MV4-11; format: cell-based; conditions: MV4-11 cells
Experimental: Test Example 2: Test of the Inhibitory Ability of Menin-MLL Interaction Inhibitors on Cell Proliferation
The inhibitory ability of the compounds of the present disclosure on the proliferation of tumor cell lines (including cell lines containing MLL fusion protein such as MV4-11, MOLM-13, THP-1 and NOMO-1, control cell lines without MLL fusion protein such as HL-60, K562 and MOLM-16, and cell lines containing NPM1 mutation such as OCI-AML3) was evaluated by using the cell viability analysis method. The cells were plated in 96-well plates at a certain concentration (e.g., 5,000-20,000 cells/well), and then an equal volume of culture medium containing 2 times the final concentration of the test compound (the final concentration ranging 10 from 1 nM to 10 μM) was added. The plates were placed in an incubator and cultured at 37° C. and 5% CO2 for 72-168 h. Before the test, an equal volume of CellTiter-Glo® Luminescent reagent was added, and the plate was incubated at room temperature for 10 min before detection using an ELISA reader (BMG LABTECH). The data were analyzed using GraphPad Prism software to obtain the IC50 value and compound fitting curve. The control compound 1 was prepared by referring to the method of Example 64 in WO2017214367.

Chain of Menin/MLL-4-43 peptide interaction (O00255 whole entry, species assumed): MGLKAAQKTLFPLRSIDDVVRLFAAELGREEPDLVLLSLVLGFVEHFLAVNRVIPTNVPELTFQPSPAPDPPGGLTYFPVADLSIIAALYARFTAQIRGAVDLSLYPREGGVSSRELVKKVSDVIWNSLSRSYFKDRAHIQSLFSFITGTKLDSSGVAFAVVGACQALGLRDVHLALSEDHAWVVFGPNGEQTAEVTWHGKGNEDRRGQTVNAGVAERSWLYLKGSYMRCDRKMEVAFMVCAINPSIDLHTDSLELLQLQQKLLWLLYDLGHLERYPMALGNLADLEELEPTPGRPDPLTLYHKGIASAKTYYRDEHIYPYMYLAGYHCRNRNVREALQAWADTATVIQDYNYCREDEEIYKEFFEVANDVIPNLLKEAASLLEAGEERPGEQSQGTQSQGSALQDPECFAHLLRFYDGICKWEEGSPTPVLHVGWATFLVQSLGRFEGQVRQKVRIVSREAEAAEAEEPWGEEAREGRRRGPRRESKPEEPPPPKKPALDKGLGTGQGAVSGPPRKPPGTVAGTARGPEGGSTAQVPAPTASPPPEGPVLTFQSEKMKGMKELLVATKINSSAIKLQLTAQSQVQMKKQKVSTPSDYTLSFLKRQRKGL

Row | Compound | IC50 [1] | GI50 (MV4-11; Homo sapiens, MV4-11, 72 h) | GI50 (MV4-11; 72 h)
1 | C=C1C[C@]2(CC[C@@H](CN3CCC4(CC3)CN(c3ncncc3Oc3ccc(F)cc3C(=O)N(C(C)C)C(C)C)C4)CC2)NC1=O [Example 62] | 0.0199 µM | 34.8 nM | 
2 | CCN(C(=O)c1cc(F)ccc1Oc1cncnc1N1CC2(CCN(CC3CC4CCC3CC43CCC(=O)N3)CC2)C1)C(C)C (single isomer, unassigned) [Example 4] | 0.029 µM |  | 61 nM
3 | CC(C)N(C(=O)c1cc(F)ccc1Oc1cncnc1N1CC2(CCN(CC3CC4CCC3CC43CCC(=O)N3)CC2)C1)C(C)C (single isomer, unassigned) [Example 13-2] | 0.0249 µM |  | 49.7 nM
4 | CC(C)N(C(=O)c1cc(F)ccc1Oc1cncnc1N1CC2(CCN(CC3CC4CCC3CC43CCC(=O)N3)CC2)C1)C(C)C (single isomer, unassigned) [Example 13-2a] | 0.0165 µM |  | 25.2 nM
5 | [2H]C([2H])([2H])C1(C([2H])([2H])[2H])C[C@]2(CC[C@@H](CN3CCC4(CC3)CN(c3ncnnc3Oc3ccc(F)cc3C(=O)N(C(C)C)C(C)C)C4)CC2)NC1=O [Example 34] | 0.0064 µM | 12.6 nM | 
6 | CCN(C(=O)c1cc(F)ccc1Oc1nncnc1N1CC2(CCN(CC3CC4CCC3CC43CCC(=O)N3)CC2)C1)C(C)C (centres unmarked) [Example 14-1] | 0.103 µM |  | 
7 | CCN(C(=O)c1cc(F)ccc1Oc1cncnc1N1CC2(CCN(CC3CC4CCC3CC43COC(=O)N3)CC2)C1)C(C)C (single isomer, unassigned) [Example 50-2] | 0.0399 µM |  | 69.1 nM
8 | CC(C)N(C(=O)c1cc(F)ccc1Oc1nncnc1N1CC2(CCN(CC3CC4CCC3CC43CCC(=O)N3)CC2)C1)C1CC1 (centres unmarked) [Example 16-1] |  | 130 nM | 
9 | CC1C[C@]2(CC[C@@H](CN3CCC4(CC3)CN(c3ncnnc3Oc3ccc(F)cc3C(=O)N(C(C)C)C(C)C)C4)CC2)NC1=O (some centres unmarked) [Example 41-2] | 0.0224 µM |  | 
10 | CC(C)N(C(=O)c1cc(F)ccc1Oc1nncnc1N1CC2(CCN(CC3CC4CCC3CC43COC(=O)N3)CC2)C1)C(C)C (single isomer, unassigned) [Example 52-1] | 0.135 µM |  | 
11 | [2H]C([2H])([2H])C1C[C@]2(CC[C@@H](CN3CCC4(CC3)CN(c3ncnnc3Oc3ccc(F)cc3C(=O)N(CC)C(C)C)C4)CC2)NC1=O (single isomer, unassigned) [Example 42-2] | 0.0445 µM |  | 
12 | CC(C)N(C(=O)c1cc(F)ccc1Oc1cncnc1N1CC2(CCN(CC3CC4CCC3CC43COC(=O)N3)CC2)C1)C(C)C (single isomer, unassigned) [Example 51-2b] | 0.141 µM |  | 
13 | CC(C)N(C(=O)c1cc(F)ccc1Oc1nncnc1N1CC2(CCN(CC3CC4CCC3CC43CCC(=O)N3)CC2)C1)C1CC1 (centres unmarked) [Example 16-2] | 0.163 µM |  | 
14 | CC(C)N(C(=O)c1cc(F)ccc1Oc1nncnc1N1CC2(CCN(CC3CC4CCC3CC43COC(=O)N3)CC2)C1)C(C)C (single isomer, unassigned) [Example 52-2] | 0.0939 µM |  | 
15 | CC(C)N(C(=O)c1cc(F)ccc1Oc1cncnc1N1CC2(CCN(CC3CC4CCC3CC43CCC(=O)N3)CC2)C1)C(C)C (single isomer, unassigned) [Example 13-1a] | 0.177 µM |  | 
16 | CC(C)N(C(=O)c1cc(F)ccc1Oc1nncnc1N1CC2(CCN(C[C@H]3CC[C@@]4(CCC(=O)N4)CC3)CC2)C1)C1CC1 [Example 11] | 0.167 µM |  | 
17 | CC(C)N(C(=O)c1cc(F)ccc1Oc1nncnc1N1CC2(CCN(CC3CC4CCC3CC43CCC(=O)N3)CC2)C1)C(C)C (single isomer, unassigned) [Example 15-1b] | 0.142 µM |  | 
18 | CCN(C(=O)c1cc(F)ccc1Oc1cncnc1N1CC2(CCN(CC3CC4CCC3CC43CCC(=O)N3)CC2)C1)C(C)C (single isomer, unassigned) [Example 4-2] | 0.0607 µM |  | 
19 | CC(C)N(C)C(=O)c1cc(F)ccc1Oc1nncnc1N1CC2(CCN(C[C@H]3CC[C@]4(CC3)CC(C)(C)C(=O)N4)CC2)C1 [Example 28] | 0.134 µM |  | 
20 | CC(C)N(C(=O)c1cc(F)ccc1Oc1nncnc1N1CC2(CCN(CC3CC4CCC3CC43CCC(=O)N3)CC2)C1)C(C)C (centres unmarked) [Example 15-1] | 0.0909 µM |  | 
